The source of these data is patent US10030027B2, “Soluble guanylate cyclase stimulators” (MERCK SHARP & DOHME CORP., priority 2015, dated 2018).

For one test, the target named is sGC α1/β1 heterodimer (Homo sapiens (Human), UniProt Q02108+Q02153). As to the kind of experiment: Cell-based sGC functional assay (cyclic GMP assay for sGC activator: CASA assay). The settings on record: CHO-K1/sGC cells; for Emax: CHO-K1, activity expressed as percentage of compound A (standard), read-out: % Activation; for EC50: inflection point, 4P fit, read-out: IP. Summed up:
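CHO-K1 cells stably expressing human sGC α1/β1 were pre-incubated 30 min at 25° C with or without 1 μM DETA-NO, then exposed to compound for 1 hr at 37° C with 0.5 mM IBMX and 2.5% DMSO final. Intracellular cGMP was measured by HTRF, expressed as % of reference sGC-HDA maximum; inflection point and maximum fold induction came from 4-parameter fits.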

For test [1], the system named is hypoxia-induced pulmonary hypertension rat. As to the kind of experiment: Acute efficacy in hypoxia-induced pulmonary hypertension in rat following intratracheal administration. Format: in vivo. An excerpt:
Acute Efficacy in Hypoxia-Induced Pulmonary Hypertension in Rat Following Intratracheal Administration Charles River Sprague-Dawley (CD) male rats weighing approximately 350 g were implanted with HD-S21 dual pressure telemetry transmitters (Data Sciences International (DSI)) into the pulmonary artery and femoral artery. This transmitter enables simultaneous measurement of both pulmonary and systemic hemodynamic parameters in the same animal. After a 7-10 day post-operative recovery period, animals were subjected to a normobaric hypoxic (10% oxygen) environment using a Higher Peak Mountain Air Generator (MAG-10) connected to a modified rodent cage via a fitted inlet port. Oxygen (at 10%), temperature, humidity, and CO2 were controlled within normal range and animals were maintained on a 12 hour light-dark cycle with ad libitum access to food and water. After two weeks exposure to 10% O2 hypoxic environment, systolic pulmonary arterial pressure readings increased from 25 mmHg to greater than 50 mmHg. Using a 48 hour baseline average, animals with readings between 50-110 mmHg (standard deviation of less than 10 mmHg) and minimal changes in systolic systemic blood pressure were enrolled for study. Animals were utilized for up to 2 studies per week for 4 weeks with a minimum of 2 days washout between doses of test agent. Compound or vehicle was administered intra-tracheally under light isoflurane anesthesia (5% in oxygen; flow rate 2.0 L/min for 3 minutes). Once anesthetized, rats were placed on an angled intubation stand in supine position and the trachea visualized using a small laryngoscope. Animals then received either 0.5 mL/kg of vehicle or 0.5 mL/kg vehicle containing compound intra-tracheally delivered via microsprayer by use of a Penn-Century Microsprayer® needle 3″ (Model IA-1B-GP) attached to a 1 mL high pressure syringe (Penn Century-Model B-SYR-PL1000) (Penn-Century, Philadelphia, Pa.). The Microsprayer® tip was inserted into the trachea up to the point at which the bend in the needle is close to the tip of the snout, which positions the tip of the Microsprayer® in front of the carina (bifurcation of trachea at the bronchi). After dose delivery the animal is placed on its back in the home cage for recovery. Hemodynamic measurements were continuously recorded and readings consolidated to hourly moving averages. Each animal received a vehicle on Day 1 followed by vehicle or test agent on Day 2. Change from vehicle baseline was calculated by subtracting the hourly Day 1 vehicle response from the hourly Day 2 response and treatment group data was expressed as mean±SEM. Decreases of systolic blood pressure (SBP) and systolic pulmonary arterial pressure (PAP) were measured at a particular IT dose (mpk milligrams per kilogram) for the following Example compounds.

Test [2] concerns Spontaneously hypertensive rats (SHR). In words: Acute efficacy in spontaneously hypertensive rats (SHR). Format: in vivo, rat. From the text: Acute Efficacy in Spontaneously Hypertensive Rats (SHR)
Spontaneously hypertensive rats (SHR, male, Charles River) were implanted with DSI TA11PA-C40 telemetry device (Data Sciences, Inc., St. Paul, Minn.) under isoflurane or ketamine/metomidine anesthesia. The telemetry unit catheter was inserted into the descending aorta via the femoral artery and the telemetry device was implanted subcutaneously in the left flank area. Animals were allowed to recover from surgery for 14 days before the start of any studies. Blood pressure, heart rate, and activity signals from conscious, freely moving rats were recorded continuously for 30 seconds every 10 minutes. On the day prior to administration of compound, a single oral dose of vehicle (10% transcutol/20% Cremophor/70% water) was administered to all animals to establish baseline control data. The blood pressure lowering efficacy of compound (PO) or vehicle was evaluated following a single oral gavage. Data were collected as hourly averages, and changes in blood pressure were calculated by subtracting control baseline data on an hourly basis. Animals were maintained on normal diet with a 12 hour light-dark cycle.
Maximum peak decreases of systolic blood pressure (SBP) in SHR at a particular P.O. dose (mpk milligrams per kilogram) for the following Example compounds are provided.

Test [3] has as its target human recombinant sGC enzyme (Homo sapiens (Human), UniProt Q02108+Q02153). In words: Size Exclusion Chromatography (SEC) competition binding assay using [3H] Ex-77B as the radioligand. The settings on record: [3H] Ex-77B radioligand, 24 hours at 37° C. In outline: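 Recombinant human sGC binding measured by competition against tritiated Ex-77B radioligand, with non-specific binding defined by 1 μM unlabeled Ex-77B.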
(SEC sorts molecules by how far they enter the pores of the column.)

For orientation: Ki means a dissociation constant, usually derived from enzyme kinetics or from competition with a known ligand. In the case of `C[C@@]1(c2ccc(CCC(=O)O)cc2)C(=O)Nc2nc(-c3nn(CCC(F)(F)C(F)(F)F)c4cc(Cl)ccc34)nc(N)c21` [Example 10B, (S)-3-(4-{4-Amino-2-[6-chloro-1-(3,3,4,4,4-pentafluorobutyl)-1H-indazol-3-yl]-5-methyl-6-oxo-6,7-dihydro-5H-pyrrolo[2,3-d]pyrimidin-5-yl}phenyl)propanoic acid], at sGC α1/β1 heterodimer, the Emax stood at 117% and the EC50 was 456 nM. For the same compound, in test [1] (Dose IT 0.01 mpk), the “Category: decrease in SBP (at minimum decrease in PAP of ≥15 mmHg)” value (“Category: decrease in SBP” below) is given as “A (decrease in SBP 0-5 mmHg)”. Further, the “Category: maximum peak decrease of systolic blood pressure (SBP) in SHR” value (shortened to “Category: maximum peak decrease”) in test [2] (Dose P.O. 3 mpk) is “A (decrease in SBP in SHRs 5-25 mmHg)”. Besides, in test [3], the Ki is 0.15 nM.
On to `CC(C)(Cc1csc([C@]2(C)C(=O)Nc3nc(-c4nn(CCC(F)(F)C(F)(F)F)c5ncccc45)nc(N)c32)n1)C(=O)O` (single isomer, unassigned) [Example 77B], for which, at sGC α1/β1 heterodimer, the Emax stood at 105% and the EC50 was determined as 489 nM. Moreover, the “Category: decrease in SBP” value in test [1] (Dose IT 0.03 mpk) is on record as “A (decrease in SBP 0-5 mmHg)”. Also, the “Category: maximum peak decrease” value in test [2] (Dose P.O. 1 mpk) was “C (decrease in SBP in SHRs>40 mmHg)”. In test [3], the Ki was 0.232 nM.
Turning to `C[C@@]1(c2ccc(CCC(=O)O)cc2)C(=O)Nc2nc(-c3nn(CCC(F)(F)C(F)(F)F)c4ncccc34)nc(N)c21` (single isomer, unassigned) [Example 7A], at sGC α1/β1 heterodimer, the Emax amounted to 98% and the EC50 came out at 1030 nM. In test [1] (Dose IT 0.1 mpk), the “Category: decrease in SBP” value was “B (decrease in SBP 5-10 mmHg)”. For the same compound, in test [2] (Dose P.O. 3 mpk), the “Category: maximum peak decrease” value is listed as “A (decrease in SBP in SHRs 5-25 mmHg)”. Besides, the Ki in test [3] stood at 0.154 nM.
`C[C@@]1(c2ccc(CCC(=O)O)cc2)C(=O)Nc2nc(-c3nn(Cc4ccccc4F)c4cc(Cl)ccc34)nc(N)c21` [Example 47B, (S)-3-(4-{4-amino-2-[6-chloro-1-(2-fluorobenzyl)-1H-indazol-3-yl]-5-methyl-6-oxo-6,7-dihydro-5H-pyrrolo[2,3-d]pyrimidin-5-yl}phenyl)propanoic acid]: at sGC α1/β1 heterodimer, the Emax turned out to be 88% and the EC50 was found to be 218 nM. In test [1] (Dose IT 0.03 mpk), the “Category: decrease in SBP” value was “A (decrease in SBP 0-5 mmHg)”. For the same compound, the Ki in test [3] worked out at 0.114 nM.
For the compound `CC(C)(Cc1coc(C2(C)C(=O)Nc3nc(-c4nn(Cc5ccccc5F)c5cc(Cl)ccc45)nc(N)c32)n1)c1nn[nH]n1` (centres unmarked) [Example 239A, 4-amino-2-[6-chloro-1-(2-fluorobenzyl)-1H-indazol-3-yl]-5-methyl-5-{4-[2-methyl-2-(2H-tetrazol-5-yl)propyl]-1,3-oxazol-2-yl}-5,7-dihydro-6H-pyrrolo[2,3-d] pyrimidin-6-one], at sGC α1/β1 heterodimer, the Emax turned out to be 62.3% and the EC50 came out at 350 nM. Besides, the “Category: decrease in SBP” value in test [1] (Dose IT 0.01 mpk) is “A (decrease in SBP 0-5 mmHg)”. Besides, the Ki in test [3] amounted to 0.068 nM.
On to `CC(C)(Cc1cccc(C2(C)C(=O)Nc3nc(-c4nn(CCC(F)(F)C(F)(F)F)c5ncccc45)nc(N)c32)c1)C(=O)O` (centres unmarked) [Example 11B, 3-(3-{4-Amino-5-methyl-6-oxo-2-[1-(3,3,4,4,4-pentafluorobutyl)-1H-pyrazolo[3,4-b]pyridin-3-yl]-6,7-dihydro-5H-pyrrolo[2,3-d]pyrimidin-5-yl}phenyl)-2,2-dimethylpropanoic acid], for which, on sGC α1/β1 heterodimer, the Emax was found to be 99% and the EC50 turned out to be 537 nM. In test [1] (Dose IT 0.03 mpk), the “Category: decrease in SBP” value was “B (decrease in SBP 5-10 mmHg)”. Besides, in test [3], the Ki came out at 0.304 nM.
For `C[C@@]1(c2ccc(CCC(=O)O)cc2)C(=O)Nc2nc(-c3nn(CC4CC(F)(F)C4)c4cc(Cl)ccc34)nc(N)c21` [Example 163B, (S)-3-{4-[4-amino-2-{6-chloro-1-[(3,3-difluorocyclo-butyl)methyl]-1H-indazol-3-yl}-5-methyl-6-oxo-6,7-dihydro-5H-pyrrolo[2,3-d]pyrimidin-5-yl]phenyl}propanoic acid], at sGC α1/β1 heterodimer, the Emax turned out to be 90.8% and the EC50 was found to be 408 nM. In addition, the “Category: decrease in SBP” value in test [1] (Dose IT 0.03 mpk) is “C (decrease in SBP>10 mmHg)”. The Ki in test [3] is 1.85 nM.
On to `CC1(c2cn(CCC(=O)O)nn2)C(=O)Nc2nc(-c3nn(CCC(F)(F)C(F)(F)F)c4ncccc34)nc(N)c21` (centres unmarked) [Example 12B, 3-(4-{4-amino-5-methyl-6-oxo-2-[1-(3,3,4,4,4-pentafluorobutyl)-1H-pyrazolo[3,4-b]pyridin-3-yl]-6,7-dihydro-5H-pyrrolo[2,3-d]pyrimidin-5-yl}-1H-1,2,3-triazol-1-yl)propanoic acid], for which, at sGC α1/β1 heterodimer, the Emax turned out to be 81% and the EC50 amounted to 2880 nM. The “Category: decrease in SBP” value in test [1] (Dose IT 0.1 mpk) is “B (decrease in SBP 5-10 mmHg)”. For the same compound, the Ki in test [3] was 2.04 nM.
As for `CC(C)(Cc1coc(C2(C)C(=O)Nc3nc(-c4nn(CC5CCCCC5)c5cc(F)ccc45)nc(N)c32)n1)C(=O)O` (centres unmarked) [Example 202A, 3-(2-{4-amino-2-[1-(cyclohexyl-methyl)-6-fluoro-1H-indazol-3-yl]-5-methyl-6-oxo-6,7-dihydro-5H-pyrrolo[2,3-d]pyrimidin-5-yl}-1,3-oxazol-4-yl)-2,2-dimethyl-propanoic acid], on sGC α1/β1 heterodimer, the Emax stood at 122% and the EC50 stood at 212 nM. Besides, the “Category: decrease in SBP” value in test [1] (Dose IT 0.01 mpk) is recorded as “A (decrease in SBP 0-5 mmHg)”. In addition, the Ki in test [3] came to 0.186 nM.
Regarding `CC(C)(Cc1csc([C@]2(C)C(=O)Nc3nc(-c4nn(Cc5ncccc5F)c5cc(Cl)ccc45)nc(N)c32)n1)C(=O)O` [Example 185A, (S)-3-{2-[4-amino-2-{6-chloro-1-[(3-fluoropyridin-2-yl)methyl]-1H-indazol-3-yl}-5-methyl-6-oxo-6,7-dihydro-5H-pyrrolo[2,3-d]pyrimidin-5-yl]-1,3-thiazol-4-yl}-2,2-dimethyl-propanoic acid], on sGC α1/β1 heterodimer, the Emax is 110% and the EC50 is 426 nM. Moreover, the “Category: decrease in SBP” value in test [1] (Dose IT 0.01 mpk) is on record as “A (decrease in SBP 0-5 mmHg)”. In addition, the Ki in test [3] was determined as 0.165 nM.
Consider `C[C@@]1(c2ccc(CCc3nn[nH]n3)cc2)C(=O)Nc2nc(-c3nn(Cc4ccccc4F)c4cc(Cl)ccc34)nc(N)c21` [Example 112B, (S)-4-Amino-2-[6-chloro-1-(2-fluorobenzyl)-1H-indazol-3-yl]-5-methyl-5-{4-[2-(2H-tetrazol-5-yl)ethyl]phenyl}-5,7-dihydro-6H-pyrrolo[2,3-d]pyrimidin-6-one], for which, on sGC α1/β1 heterodimer, the Emax amounted to 130% and the EC50 worked out at 2520 nM. The “Category: decrease in SBP” value in test [1] (Dose IT 0.01 mpk) is reported as “A (decrease in SBP 0-5 mmHg)”. The Ki in test [3] worked out at 0.066 nM.
